Laboratory results from BigSolDB 2.1.

CC1(C)COP(=O)(C(C)(C)O)OC1
Conditions	solubility (mole fraction)
in 1,2-dichloroethane, 283.65 K	0.00134
in 1,2-dichloroethane, 288.55 K	0.00156
in 1,2-dichloroethane, 293.65 K	0.00196
in 1,2-dichloroethane, 298.25 K	0.00249
in 1,2-dichloroethane, 303.15 K	0.00308
in 1,2-dichloroethane, 308.05 K	0.00418
in 1,2-dichloroethane, 313 K	0.00519
in 1,2-dichloroethane, 317.8 K	0.00654
in 1,2-dichloroethane, 322.7 K	0.00788
in acetone, 278.15 K	0.0024
in acetone, 283.65 K	0.00286
in acetone, 288.25 K	0.00329
in acetone, 293.75 K	0.00415
in acetone, 298.65 K	0.00505
in acetone, 303.15 K	0.00596
in acetone, 308.05 K	0.007
in acetone, 312.95 K	0.00821
in acetone, 317.75 K	0.00998
in acetone, 322.55 K	0.0118
in acetonitrile, 278.65 K	0.00174
in acetonitrile, 283.65 K	0.00222
in acetonitrile, 288.85 K	0.00295
in acetonitrile, 293.75 K	0.00357
in acetonitrile, 298.25 K	0.00413
in acetonitrile, 303.2 K	0.00513
in acetonitrile, 308.15 K	0.00629
in acetonitrile, 312.9 K	0.00754
in acetonitrile, 318.3 K	0.00901
in acetonitrile, 322.8 K	0.0111
in acetonitrile, 328 K	0.0135
in acetonitrile, 332.65 K	0.0165
in chloroform, 278.9 K	0.0132
in chloroform, 283.85 K	0.0139
in chloroform, 288.55 K	0.0147
in chloroform, 293.85 K	0.0174
in chloroform, 298.3 K	0.0212
in chloroform, 303.25 K	0.0244
in chloroform, 308.05 K	0.0302
in chloroform, 313.15 K	0.0364
in chloroform, 317.75 K	0.0421
in chloroform, 322.75 K	0.0508
in ethanol, 278.85 K	0.0199
in ethanol, 283.75 K	0.023
in ethanol, 288.55 K	0.0265
in ethanol, 293.65 K	0.0315
in ethanol, 298.35 K	0.0349
in ethanol, 303.55 K	0.0403
in ethanol, 308.55 K	0.046
in ethanol, 313.25 K	0.0528
in ethanol, 318.05 K	0.0592
in ethanol, 323.15 K	0.065
in ethyl acetate, 293.75 K	0.00129
in ethyl acetate, 298.35 K	0.00141
in ethyl acetate, 303.35 K	0.00187
in ethyl acetate, 308.15 K	0.00231
in ethyl acetate, 313.35 K	0.0028
in ethyl acetate, 318 K	0.00372
in ethyl acetate, 322.75 K	0.00445
in ethyl acetate, 328.25 K	0.00563
in ethyl acetate, 333.55 K	0.00714
in ethyl acetate, 337.65 K	0.00819
in ethyl acetate, 342.85 K	0.0102
in methanol, 279.05 K	0.0374
in methanol, 283.75 K	0.0416
in methanol, 288.25 K	0.0472
in methanol, 293.75 K	0.0527
in methanol, 298.65 K	0.0577
in methanol, 303.25 K	0.0653
in methanol, 308.45 K	0.0725
in methanol, 312.95 K	0.0792
in methanol, 317.75 K	0.0862
in methanol, 322.65 K	0.0968
in water, 283.55 K	0.00713
in water, 288.85 K	0.00723
in water, 294.7 K	0.007
in water, 298.25 K	0.00711
in water, 303.3 K	0.00736
in water, 308.25 K	0.00757
in water, 313.35 K	0.00805
in water, 318.3 K	0.00861
in water, 323.15 K	0.00911
in water, 328.05 K	0.0102
in water, 332.9 K	0.0112
in water, 338.15 K	0.0128
in water, 343.15 K	0.0142
